The source made the active and inactive calls.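 The calls were made as follows: active = fitted EC50 no more than tenfold above the highest tested concentration; inconclusive = flat fit with 30 to 70% signal loss, or poor fit; inactive = the rest.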
Tested on: Candida albicans CaCi-2 growth (no fluconazole), Alamar Blue
Test: intrinsic antifungal toxicity in Candida, azole-free – CaCi-2 strain, Alamar Blue fluorescence, counter-screen for fluconazole resistance reversal project, dose response (AID 2387)
Details: C. albicans CaCi-2 (fluconazole-resistant clinical isolate) growth without fluconazole, 48 h

SMILES | EC50
O=C(NCc1cc([N+](=O)[O-])ccc1O)c1cccnc1Sc1ccccc1Cl | > 15 µM (inactive)
CCN1/C(=C/C(C)=C/c2sc3ccccc3[n+]2CC)Sc2ccccc21 | 2.38 µM
CCCC(=O)NC(c1ccc(OC)cc1)c1ccc2cccnc2c1O (stereo not drawn) | > 16 µM (inactive)
CCOC(=O)c1c(NC(=S)NCC2CCCO2)sc(C)c1C (stereo not drawn) | > 16 µM (inactive)
COCCn1c(=O)[nH]c(=O)c2cc(C(=O)c3cc(Cl)ccc3O)cnc21 | > 16 µM (inactive)
O=C(N/N=C/c1cc2c3c(c1O)CCCN3CCC2)c1ccccc1O | 2.15 µM
CCCCCCC[n+]1ccc(-c2cc[n+](CCCCCCC)cc2)cc1 | 1.68 µM
CC1(O)CC(c2ccc(Cl)cc2)=NN1C(=O)c1ccc([N+](=O)[O-])cc1 (stereo not drawn) | > 16 µM (inactive)
C=CCNC(=S)Nc1sc2c(c1C(=O)OCC)CC(C)(CC)OC2 (stereo not drawn) | > 15 µM (inactive)
Cc1cccc(/C=C/C(=O)c2cc(Br)ccc(=O)c2O)c1 | 14.5 µM
CC(C)CCN1C(=O)c2ccc(C(=O)Nc3ccc(Br)cc3C(=O)O)cc2C1=O | > 16 µM (inactive)
O=C(N/N=C/c1c(O)ccc2ccccc12)c1cccc(C(F)(F)F)c1 | 1.42 µM
CC(=O)NC(c1cccs1)c1cc([N+](=O)[O-])c2cccnc2c1O (stereo not drawn) | > 15 µM (inactive)
Nc1nonc1-n1nnc(C(=O)N/N=C/c2cc(Br)ccc2O)c1CNc1ccccc1 | > 16 µM (inactive)
CCCCC(=O)NC(c1ccc(Cl)cc1)c1ccc2cccnc2c1O (stereo not drawn) | 9.92 µM
C=CCN(CC=C)Cc1c(O)ccc2c(=O)c(-c3ccccc3)coc12 | > 15 µM (inactive)
CCNC(=S)NNC(=O)c1cc(-c2cc(C)ccc2C)nc2ccccc12 | > 15 µM (inactive)
Oc1c(CN2CCN(c3ccccc3)CC2)cc(Br)c2cccnc12 | 2.11 µM
O=C(NNC1=C(C(=O)C(F)(F)F)CCC1)c1ccc(Cl)cc1 | > 15 µM (inactive)
CC1CCN(Cc2c(C(=O)N/N=C/c3cc(Br)ccc3O)nnn2-c2nonc2N)CC1 | > 16 µM (inactive)
Oc1c(C(Nc2nc3ccccc3s2)c2ccco2)ccc2cccnc12 (stereo not drawn) | 4.68 µM
COc1ccc(C2C(C#N)=C(N)Oc3c2ccc2cccnc32)cc1OC (stereo not drawn) | > 15 µM (inactive)
O=C(NCc1ccc(F)cc1)C(c1ccccc1)N(CC1CCCO1)C(=O)Cn1nnc2ccccc21 (stereo not drawn) | > 15 µM (inactive)
Cc1ccc(NC(=O)c2sc3nc(N)c(C#N)cc3c2N)cc1 | > 15 µM (inactive)
O=C(Oc1c(CN2CCOCC2)cc(Cl)c2cccnc12)c1ccc(F)cc1 | > 16 µM (inactive)

SMILES | EC50
Cc1ccnc(Sc2ccc([N+](=O)[O-])cc2[N+](=O)[O-])n1 | > 15 µM (inactive)
COc1ccc(-n2nc(C(=O)NCC(=O)N3CCN(c4ccc(F)cc4)CC3)c3ccccc3c2=O)c(OC)c1 | > 15 µM (inactive)
Clc1ccc(CONc2ncnc3nonc23)c(Cl)c1 | > 16 µM (inactive)
CC(C)N1CCc2c(sc(NC(=O)c3nc4ccccc4s3)c2C(N)=O)C1 | > 15 µM (inactive)
CC(=O)NC(c1ccc(C)cc1)c1cc([N+](=O)[O-])c2cccnc2c1O (stereo not drawn) | > 16 µM (inactive)
Cc1ccc(C(=O)Nc2cccc(-c3cn4ccccc4n3)c2)cc1 | > 16 µM (inactive)
O=C(CCS(=O)(=O)c1ccc(F)cc1)Nc1nc(-c2ccncc2)cs1 | > 15 µM (inactive)
COc1ccc(OC)c(C2C(C(=O)c3cc4ccccc4o3)=C(O)C(=O)N2c2cc(C)on2)c1 (stereo not drawn) | > 15 µM (inactive)
CCCC(=O)NC(c1ccc(C(C)C)cc1)c1ccc2cccnc2c1O (stereo not drawn) | 11.1 µM
CC1CCC(C(C)C)C(OC(=O)Cn2c(-c3ccc(Br)cc3)[n+](C)c3ccccc32)C1 (stereo not drawn) | > 16 µM (inactive)
O=C(c1ccc(Cl)cc1)N1CCN(c2ccnc3cc(Cl)ccc23)CC1 | > 15 µM (inactive)
Cc1oc2c(F)c(F)c(F)c(F)c2c1S(=O)(=O)Nc1cccc(C(F)(F)F)c1 | > 16 µM (inactive)
COc1cccc(-c2nc(NC(C)C)c3ccccc3n2)c1O | > 16 µM (inactive)
O=C(NC(Nc1nc2ccc([N+](=O)[O-])cc2s1)(C(F)(F)F)C(F)(F)F)c1ccccc1Cl | > 16 µM (inactive)
C(=C\c1ccccc1)/CN1CCN(c2ncnc3c2oc2ccccc23)CC1 | > 16 µM (inactive)
Cc1cc(C(C#N)c2ccccc2F)n2ncnc2n1 (stereo not drawn) | > 16 µM (inactive)
CCOC(=O)N1C(=O)C2(CCCCC2)N(c2ccccc2Cl)C1=S | 14.6 µM
CC(C)(C)c1ccc(OCCCC(=O)NNC(=O)c2ccccc2O)cc1 | > 16 µM (inactive)
C/C(=N\NC(=O)c1cc2ccccc2cc1O)c1ccccn1 | 9.98 µM
O=C(CCc1ccccc1)NNC(=S)NC(=O)c1ccccc1 | > 15 µM (inactive)
O=C(NNC(=S)Nc1ccc(Cl)c(Cl)c1)c1ccccn1 | 11.3 µM
O=C(Nc1cccc(-c2cn3ccccc3n2)c1)c1cccc(Cl)c1 | > 16 µM (inactive)
Cc1c(Cl)c([N+](=O)[O-])nn1Cc1ccc(C(=O)N/N=C\c2cc(Cl)ccc2O)o1 | > 16 µM (inactive)
CCC(=O)NC(c1ccc(OC)cc1)c1cc(Cl)c2cccnc2c1O (stereo not drawn) | > 16 µM (inactive)
O=C(Nc1nnc(-c2ccc3c(c2)CCCC3)o1)c1ccc(Cl)cc1Cl | 14.5 µM

SMILES | EC50
COc1ccc(N(CC(=O)Nc2ccccc2C(N)=O)S(=O)(=O)c2ccc(C)c([N+](=O)[O-])c2)cc1 | > 16 µM (inactive)
COc1ccc(C(=O)NNC(=S)NC(=O)c2ccc(Cl)cc2)cc1 | > 16 µM (inactive)
CCSc1nnc(-c2ccc(C)cc2)c2ccccc12 | > 15 µM (inactive)
Cc1ccc(NC(=O)CNC(=O)c2ccc(Oc3ccccc3)cc2)nc1 | > 15 µM (inactive)
CN(C)S(=O)(=O)Oc1cccc(C(=O)Nc2cccc(Cl)c2)c1 | > 15 µM (inactive)
COc1ccc(-n2c(=O)c3c4c(sc3n3c(=S)[nH]nc23)CCCC4)cc1 | > 16 µM (inactive)
COc1ccc(-n2nc(C(=O)NCC(=O)NCCC3=CCCCC3)c3ccccc3c2=O)c(OC)c1 | > 15 µM (inactive)
CC(C)(C)c1ccc(CSc2cnn(C(C)(C)C)c(=O)c2Cl)cc1 | > 16 µM (inactive)
CC(C)(C)c1ccc(Cc2n[nH]c(=S)[nH]c2=O)cc1 | > 16 µM (inactive)
CCN(CC)S(=O)(=O)c1cc(OC)ccc1N=Nc1ccc(O)c2ncccc12 | 6.91 µM
CCc1cc(-c2n[nH]c(=S)n2-c2ccccc2C)cs1 | > 16 µM (inactive)
CCOc1ccc(NC(=S)NNC(=O)c2ccc(Br)cc2)cc1 | > 16 µM (inactive)
Cc1ccc(Nc2nc(N)c([N+](=O)[O-])c(N3CCC(C)CC3)n2)cc1C | > 15 µM (inactive)
CCn1c(Sc2nc(C)nc3scc(-c4cccs4)c23)n[nH]c1=O | > 16 µM (inactive)
O=[N+]([O-])c1ccc(O)c(Nc2ncnc3ccc(Br)cc23)c1 | > 16 µM (inactive)
O=C(NCc1ccco1)c1sc(=S)n2c1[nH]c(=O)c1ccccc12 | > 16 µM (inactive)
Cc1ccc(S(=O)(=O)N(C)c2ccc(OCC(=O)Nc3nnc(C4CC4)s3)cc2)cc1 | > 15 µM (inactive)
N/C(Cc1ccc(Cl)c(Cl)c1)=N\OC(=O)c1cccs1 | > 16 µM (inactive)
Cc1nn(-c2ccccc2)c(Cl)c1/C=C/C(=O)c1ccc(O)cc1 | > 16 µM (inactive)
COc1ccc(-n2nc(C(=O)NCC(=O)N3CCN(c4ccccc4)CC3)c3ccccc3c2=O)c(OC)c1 | > 16 µM (inactive)
O=C(/C(=N/N=C/c1ccc(O)c(O)c1O)c1ccccc1)c1ccccc1 | > 15 µM (inactive)
Oc1ccc(N=Nc2ccc3c(c2)OCCO3)c2cccnc12 | 3.65 µM
Cc1ccc2nc(/C(C#N)=C\c3ccc(OC(=O)c4cccs4)cc3)[nH]c2c1 | > 16 µM (inactive)
CN(C)c1cc(N/N=C/c2ccc(Cl)cc2)nc(N(C)C)n1 | > 16 µM (inactive)
COc1ccccc1OCC(=O)N/N=C/C=C/c1ccc([N+](=O)[O-])o1 | > 16 µM (inactive)

SMILES | EC50
O=C(Oc1cc2oc(=O)c3c(c2cc1Cl)CCCC3)c1cccs1 | > 15 µM (inactive)
O=[N+]([O-])c1cc(O)c2ncccc2c1 | 12.3 µM
O=C(Nc1nnc(-c2ccco2)o1)c1ccc(Cl)cc1 | > 15 µM (inactive)
CC/C(=N/NC(=O)c1ccccc1O)c1c(C)[nH]n(-c2ccccc2)c1=O | > 15 µM (inactive)
COc1ccc(-c2nnc(NC(=O)c3ccc(F)cc3)o2)cc1 | > 15 µM (inactive)
CCCCOc1cccc(C2C(C(=O)c3ccc(C)o3)=C(O)C(=O)N2Cc2ccco2)c1 (stereo not drawn) | > 15 µM (inactive)
COc1cccc(/C=N/NC(=O)C(=O)Nc2ccccc2OC(F)(F)C(F)F)c1O | > 16 µM (inactive)
COc1ccccc1NC1=C(N2CCCCC2)C(=O)c2ccccc2C1=O | > 16 µM (inactive)
CC(=O)Nc1ccc(Nc2c3ccccc3nc3ccccc23)cc1 | > 15 µM (inactive)
C(C#CCCCCCCCCC[n+]1ccccc1)#CCCCCCCCCC[n+]1ccccc1 | 2.52 µM
Cc1c(Cl)ccc2c1NC(=O)[C@]21N[C@@H](Cc2ccccc2)[C@H]2C(=O)N(c3ccc(F)cc3)C(=O)[C@H]21 | > 16 µM (inactive)
O=C(Nc1nnc(SCc2ccc(Cl)cc2)s1)c1cnccn1 | > 16 µM (inactive)
CC(Nc1ncnc2ccccc12)c1ccccc1 (stereo not drawn) | > 16 µM (inactive)
CCn1c(O)c(N=NC(=O)c2cccs2)c2ccccc21 | > 15 µM (inactive)
CC(CC(=O)Nc1ncc([N+](=O)[O-])s1)c1ccccc1 (stereo not drawn) | > 16 µM (inactive)
Oc1ccc2ccccc2c1/C=N/Nc1nnc(-c2ncc[nH]2)c2ccccc12 | > 15 µM (inactive)
O=C(CCS(=O)(=O)c1ccc(Cl)cc1)Nc1nc(-c2ccncc2)cs1 | > 15 µM (inactive)
COc1ccc(C(=O)N2c3ccccc3C=CC2C#N)cc1 (stereo not drawn) | > 15 µM (inactive)
N/C(Cc1ccccc1)=N\OC(=O)c1cccc2ccccc12 | > 15 µM (inactive)
CC(C)n1cc(/C=C/c2cc[n+](C)cc2)c2ccccc21 | > 15 µM (inactive)
CCCC(=O)NC(c1cccs1)c1cc(Cl)c2cccnc2c1O (stereo not drawn) | 12 µM
O=C(NNC1=C(C(=O)C(F)(F)F)CCC1)c1ccc(Br)cc1 | > 15 µM (inactive)
CNC(=O)Nc1cc(C(F)(F)F)cc(C(F)(F)F)c1 | > 15 µM (inactive)

From PubChem BioAssay AID2387 (Broad Institute, 2010)
